Measured values from US9458165B2, “DOT1L inhibitors” (Dana-Farber Cancer Institute, Inc., priority 2014, dated 2016).
Like-named read-outs stand apart in the source and are kept apart here.

Tests used:
His6-DOT1L = His6-DOT1L (Homo sapiens, UniProt Q8TEK3); assay: ALPHA assay (AlphaScreen) of probe displacement from DOT1L; type: binding; conditions: FIG. 9
Description: In and ALPHA assay binding of binding partners captured on the beads leads to an energy transfer from one bead to the other, ultimately producing a luminescent signal. Alpha assays require two bead types: donor beads and acceptor beads. Donor beads contain a photosensitizer, phthalocyanine, which converts ambient oxygen to an excited and reactive form of O2, singlet oxygen, upon illumination at 680 nm. Within its 4 μsec half-life, singlet oxygen can diffuse approximately 200 nm in solution. If an Acceptor bead is within that distance, energy is transferred from the singlet oxygen to thioxene derivatives within the Acceptor bead, resulting in light production. If the Donor bead is not in proximity of an Acceptor bead, the singlet oxygen falls to ground state and no signal is produced. […]
Two stock solutions are made at 2× the final concentration in Alpha buffer. […] Finally, 10 μL of solution B is added to the 384 well alpha plate, the plate is spun down and incubated at room temperature and read on a plate reader.
Plates can be read with an Envision plate reader, which comes with a predefined AlphaScreen program that has the correct excitation and emission wavelengths, cutoff filters, delay time, etc. […]
Plates are incubated at room temperature for 20 minutes, then read on plate reader.

HL60 = assay: Cellular activity in HL60 cell line (FIG. 10B); type: cell-based; conditions: compared to EPZ4777, FIG. 10B
[1] = Pharmacokinetic study, intravenous 5 mg/kg; type: in vivo; conditions: CD1 mice
Procedure: Pharmacokinetic studies of the compound of Example 1 (i.e. CC-006) and previously disclosed compounds EPZ004777, CC001 (see U.S. 2014/0051654) and FED1 were performed in CD1 mice following intravenous administration, as detailed in Table 1.
Mean plasma concentration-time profiles representative of the compound of Example 1 (i.e. CC-006) after intravenous dosing (5 mg kg^−1) are shown in FIG. 8A (data represent the mean and s.d. (n=3)). […] From the pharmacokinetic properties, the compound of Example 1 (i.e. CC-006) has potential for use in treatment using intravenous administration due to its long half-life, as compared to subcutaneous administration.

[2] = Pharmacokinetic study, IP 100 mg/kg, whole blood concentration; type: in vivo, male CD1 mice; conditions: for AUC(0-inf) / AUC(0-t) / Cmax / half-life / Tmax / concentration at 0.083 hr / concentration at 0.25 hr / concentration at 0.5 hr / concentration at 1 h / concentration at 2 h / concentration at 4 h / concentration at 8 h / concentration at 24 h: male, CD1, mouse, ip, 100 mg/kg
Procedure: Pharmacokinetic studies in CD1 mice using the compound of Example 1 (i.e. CC-006) (100 mg/kg, IP dose) were also performed.

[3] = Cellular assays (not specified at the place); type: cell-based
Procedure: The compounds of Examples 1-4 and known DOT1L inhibitors were analyzed in a High Content Imaging Assay (HCI).

[4] = read-out: Concentration Mouse#1
[5] = read-out: Concentration Mouse#2
[6] = read-out: Concentration Mouse#3

Sequence of His6-DOT1L (Q8TEK3 whole entry): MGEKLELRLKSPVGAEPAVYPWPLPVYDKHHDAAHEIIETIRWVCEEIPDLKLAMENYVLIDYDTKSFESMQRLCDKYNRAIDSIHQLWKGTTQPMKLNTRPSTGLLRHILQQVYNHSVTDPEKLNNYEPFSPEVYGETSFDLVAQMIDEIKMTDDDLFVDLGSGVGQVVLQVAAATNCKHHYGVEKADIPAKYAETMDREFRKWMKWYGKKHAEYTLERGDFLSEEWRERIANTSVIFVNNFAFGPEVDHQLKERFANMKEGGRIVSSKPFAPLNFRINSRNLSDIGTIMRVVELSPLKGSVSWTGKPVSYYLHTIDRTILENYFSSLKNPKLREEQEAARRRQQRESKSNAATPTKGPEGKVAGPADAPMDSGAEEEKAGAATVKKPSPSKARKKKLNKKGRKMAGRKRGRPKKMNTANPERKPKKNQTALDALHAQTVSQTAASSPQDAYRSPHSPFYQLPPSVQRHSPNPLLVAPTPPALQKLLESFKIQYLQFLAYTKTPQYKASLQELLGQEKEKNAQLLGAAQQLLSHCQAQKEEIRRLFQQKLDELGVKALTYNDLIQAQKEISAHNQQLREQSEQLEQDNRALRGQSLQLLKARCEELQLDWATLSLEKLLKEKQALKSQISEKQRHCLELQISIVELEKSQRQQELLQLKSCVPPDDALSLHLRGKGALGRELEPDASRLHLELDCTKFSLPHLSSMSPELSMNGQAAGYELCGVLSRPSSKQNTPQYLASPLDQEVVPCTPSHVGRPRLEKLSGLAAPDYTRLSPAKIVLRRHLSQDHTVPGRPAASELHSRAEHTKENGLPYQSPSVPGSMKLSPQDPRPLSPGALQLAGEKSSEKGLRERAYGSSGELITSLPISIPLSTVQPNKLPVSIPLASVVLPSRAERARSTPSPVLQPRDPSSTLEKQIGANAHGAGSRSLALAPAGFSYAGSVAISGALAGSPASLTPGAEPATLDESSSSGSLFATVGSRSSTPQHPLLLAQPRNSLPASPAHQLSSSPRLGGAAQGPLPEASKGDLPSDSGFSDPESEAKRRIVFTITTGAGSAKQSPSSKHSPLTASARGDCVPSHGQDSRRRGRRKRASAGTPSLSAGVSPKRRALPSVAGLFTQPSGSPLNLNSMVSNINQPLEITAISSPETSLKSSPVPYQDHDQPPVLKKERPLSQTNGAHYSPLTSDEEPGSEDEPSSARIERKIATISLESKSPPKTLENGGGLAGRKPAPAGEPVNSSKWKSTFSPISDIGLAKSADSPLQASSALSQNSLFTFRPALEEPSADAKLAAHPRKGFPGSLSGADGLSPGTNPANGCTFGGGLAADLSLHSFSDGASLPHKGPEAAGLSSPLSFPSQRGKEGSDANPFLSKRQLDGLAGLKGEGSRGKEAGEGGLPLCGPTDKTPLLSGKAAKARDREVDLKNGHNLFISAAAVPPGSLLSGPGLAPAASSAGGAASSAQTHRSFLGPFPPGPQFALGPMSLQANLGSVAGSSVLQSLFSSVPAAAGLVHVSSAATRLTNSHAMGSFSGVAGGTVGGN

- binding to DOT1L (ALPHA screen) (His6-DOT1L): binds to DOT1L
- half-life relative to the half-life of EPZ004777 [1]: approximately 4.3 ×
- half-life relative to the half-life of FED1 [1]: ~10.5 ×
- drug exposure (area under the curve (AUC)) ([1]; 5 mg/kg, FIG. 8B): good drug exposure
- half-life ([1]; mouse, plasma, 5 mg/kg, FIG. 8B, read-out: half-life (T1/2) (converted)): 12.6 h
- AUC(0-inf) ([2]; read-out: AUCINF Mean): 86900 ng·h/mL
- AUC(0-inf) ([2]; read-out: AUCINF Mouse#1): 58900 ng·h/mL
- AUC(0-inf) ([2]; read-out: AUCINF Mouse#2): 72900 ng·h/mL
- AUC(0-inf) ([2]; read-out: AUCINF Mouse#3): 129000 ng·h/mL
- AUC(0-t) ([2]; read-out: AUClast Mean): 84400 ng·h/mL
- AUC(0-t) ([2]; read-out: AUClast Mouse#1): 57100 ng·h/mL
- AUC(0-t) ([2]; read-out: AUClast Mouse#2): 70500 ng·h/mL
- AUC(0-t) ([2]; read-out: AUClast Mouse#3): 126000 ng·h/mL
- Cmax ([2]; read-out: Cmax Mean): 15300 ng/mL
- Cmax ([2]; read-out: Cmax Mouse#1): 13100 ng/mL
- Cmax ([2]; read-out: Cmax Mouse#2): 15000 ng/mL
- Cmax ([2]; read-out: Cmax Mouse#3): 17800 ng/mL
- half-life ([2]; read-out: Terminal t1/2 Mean (converted)): 4.65 h
- half-life ([2]; read-out: Terminal t1/2 Mouse#1 (converted)): 4.64 h
- half-life ([2]; read-out: Terminal t1/2 Mouse#2 (converted)): 4.8 h
- half-life ([2]; read-out: Terminal t1/2 Mouse#3 (converted)): 4.51 h
- Tmax ([2]; read-out: Tmax Mean): 0.833 h
- Tmax ([2]; read-out: Tmax Mouse#1): 1 h
- Tmax ([2]; read-out: Tmax Mouse#2): 1 h
- Tmax ([2]; read-out: Tmax Mouse#3): 0.5 h
- concentration at 0.083 hr ([2]; read-out: Concentration Mean): 5350 ng/mL
- concentration at 0.083 hr [2, 4]: 4600 ng/mL
- concentration at 0.083 hr [2, 5]: 5940 ng/mL
- concentration at 0.083 hr [2, 6]: 5500 ng/mL
- concentration at 0.25 hr ([2]; read-out: Concentration Mean): 12700 ng/mL
- concentration at 0.25 hr [2, 4]: 12000 ng/mL
- concentration at 0.25 hr [2, 5]: 13400 ng/mL
- concentration at 0.25 hr [2, 6]: 12800 ng/mL
- concentration at 0.5 hr ([2]; read-out: Concentration Mean): 14300 ng/mL
- concentration at 0.5 hr [2, 4]: 11100 ng/mL
- concentration at 0.5 hr [2, 5]: 14100 ng/mL
- concentration at 0.5 hr [2, 6]: 17800 ng/mL
- concentration at 1 h ([2]; read-out: Concentration Mean): 15200 ng/mL
- concentration at 1 h [2, 4]: 13100 ng/mL
- concentration at 1 h [2, 5]: 15000 ng/mL
- concentration at 1 h [2, 6]: 17500 ng/mL
- concentration at 2 h ([2]; read-out: Concentration Mean): 12600 ng/mL
- concentration at 2 h [2, 4]: 10500 ng/mL
- concentration at 2 h [2, 5]: 11300 ng/mL
- concentration at 2 h [2, 6]: 16100 ng/mL
- concentration at 4 h ([2]; read-out: Concentration Mean): 7450 ng/mL
- concentration at 4 h [2, 4]: 4210 ng/mL
- concentration at 4 h [2, 5]: 5380 ng/mL
- concentration at 4 h [2, 6]: 12800 ng/mL
- concentration at 8 h ([2]; read-out: Concentration Mean): 2000 ng/mL
- concentration at 8 h [2, 4]: 957 ng/mL
- concentration at 8 h [2, 5]: 1460 ng/mL
- concentration at 8 h [2, 6]: 3570 ng/mL
- concentration at 24 h ([2]; read-out: Concentration Mean): 382 ng/mL
- concentration at 24 h [2, 4]: 266 ng/mL
- concentration at 24 h [2, 5]: 350 ng/mL
- concentration at 24 h [2, 6]: 531 ng/mL
- Concentration Mean ([2]; sampling time 0 hr): BQL
- Concentration Mouse#1 ([2]; sampling time 0 hr): BQL
- Concentration Mouse#2 ([2]; sampling time 0 hr): BQL
- Concentration Mouse#3 ([2]; sampling time 0 hr): BQL
Structure (SMILES): CC(C)N(C[C@H]1C[C@@H](n2cc(C#N)c3c(N)ncnc32)[C@H](O)[C@@H]1O)C1CC(CCc2nc3ccc(C(C)(C)C)cc3[nH]2)C1 (stereo partly drawn) [Example 1, 4-amino-7-((1R,2S,3R,4R)-4-(((3-(2-(6-(tert-butyl)-1H-benzo[d]imidazol-2-yl)ethyl)cyclobutyl)(isopropyl)amino)methyl)-2,3-dihydroxycyclopentyl)-7H-pyrrolo[2,3-d]pyrimidine-5-carbonitrile]
- cellular activity on HL60 (HL60): but not on HL60
- cellular activity compared to CC0001 [3]: largely improved cellular activity compared to CC0001
